Read-outs that look alike come from different tables or passages of the source.
How the values were obtained:
[1] = system: HIV-1 strains resistant to INSTIs, NRTIs, NNRTIs or PIs; assay type: cell-based; details: for Fold change in EC50 relative to NL4-3, E92Q / Fold change in EC50 relative to NL4-3, G140S/Q148H / Fold change in EC50 relative to NL4-3, N155H / Fold change in EC50 relative to NL4-3, Y143R / Fold change in EC50 relative to NL4-3, G140S / Fold change in EC50 relative to NL4-3, Q148H / Fold change in EC50 relative to NL4-3, E92Q/N155H (pat.) / Fold change in EC50 relative to NL4-3, G140S/Q148H (pat.) / Fold change in EC50 relative to NL4-3, T97A/N155H (pat.): INSTI-resistant; for Fold change in EC50 relative to NL4-3, E92Q / Fold change in EC50 relative to NL4-3, G140S/Q148H / Fold change in EC50 relative to NL4-3, N155H / Fold change in EC50 relative to NL4-3, Y143R / Fold change in EC50 relative to NL4-3, K103N/Y181C / Fold change in EC50 relative to NL4-3, G140S / Fold change in EC50 relative to NL4-3, Q148H: NL4-3 background; for Fold change in EC50 relative to NL4-3, NLAY351717: NRTI-resistant clone; for Fold change in EC50 relative to NL4-3, NLAY351753: NRTI/NNRTI-resistant clone; for Fold change in EC50 relative to NL4-3, K103N/Y181C: NRTI/NNRTIs group; for Fold change in EC50 relative to NL4-3, ARP-4595 / Fold change in EC50 relative to NL4-3, ARP-4596 / Fold change in EC50 relative to NL4-3, ARP-11801 / Fold change in EC50 relative to NL4-3, ARP-11803 / Fold change in EC50 relative to NL4-3, ARP-11807 / Fold change in EC50 relative to NL4-3, ARP-11808: PI-resistant virus; for Fold change in EC50 relative to NL4-3, E92Q/N155H (pat.) / Fold change in EC50 relative to NL4-3, G140S/Q148H (pat.) / Fold change in EC50 relative to NL4-3, T97A/N155H (pat.): primary patient-derived strain
Protocol: To this end, we used both recombinant viruses constructed by introducing described drug resistance mutations into NL4-3 HIV-1 clone as well as drug-resistant clinical HIV-1 isolates.
(§1) MT4 cells growing exponentially at the density of 10^6/mL were infected with HIV-1 strain NL4-3 at a multiplicity of infection (MOI) of 0.001 for 2 h in the presence of different concentrations of compounds, and the CellTiter-Glo luminescent reagent (Promega) was used to quantify cell viability as described previously ([12]).

NL4-3 HIV-1 strain = assay: Multiple-round infection assay in MT4 cells, NL4-3; assay type: cell-based
[2] = system: NL4-3 HIV-1 with INLAI-selected IN single point mutations; assay type: cell-based
HXB2 HIV-1 strain = assay: Multiple-round infection assay in MT4 cells, HXB2; assay type: cell-based; details: Human immunodeficiency virus 1, HXB2, MT4, read-out: EC50 HXB2
Protocol: Antiretroviral activity of BDM-2 and its analogs was first evaluated in lymphoblastoid cell line MT4 and in primary human T lymphocytes using NL4-3 and HXB2 laboratory HIV-1 isolates.
as §1

[3] = system: lab-adapted and clinical HIV-1 isolates; assay: Infection assays in primary T CD4+ lymphocytes; assay type: cell-based; details: Human immunodeficiency virus 1, Lymphocyte
[4] = system: VSV-G-pseudotyped NL4-3Δenv-luc; assay: microbe, parasite or virus in culture; assay type: cell-based, HIV-1; details: Human immunodeficiency virus 1, NL43, MT4, read-out: EC50 in single-round infection
[5] = Cytotoxicity assay in MT4 cells; assay type: cell-based; details: human, MT4 cells (proliferating human T-cell line), CellTiter-Glo
From the text: Growth inhibition was monitored in a proliferating human T-cell line (MT4) with different concentrations of compounds, using the CellTiter-Glo luminescent reagent (Promega), as previously described ([12]).

Row | SMILES | Fold change in EC50 relative to NL4-3, E92Q [1] | Fold change in EC50 relative to NL4-3, G140S/Q148H [1] | Fold change in EC50 relative to NL4-3, N155H [1] | Fold change in EC50 relative to NL4-3, Y143R [1] | Fold change in EC50 relative to NL4-3, NLAY351717 [1] | Fold change in EC50 relative to NL4-3, NLAY351753 [1] | Fold change in EC50 relative to NL4-3, K103N/Y181C [1] | Fold change in EC50 relative to NL4-3, ARP-4595 [1] | Fold change in EC50 relative to NL4-3, ARP-4596 [1] | Fold change in EC50 relative to NL4-3, ARP-11801 [1] | Fold change in EC50 relative to NL4-3, ARP-11803 [1] | Fold change in EC50 relative to NL4-3, ARP-11807 [1] | Fold change in EC50 relative to NL4-3, ARP-11808 [1] | Fold change in EC50 relative to NL4-3, G140S [1] | Fold change in EC50 relative to NL4-3, Q148H [1] | Fold change in EC50 relative to NL4-3, E92Q/N155H (pat.) [1] | Fold change in EC50 relative to NL4-3, G140S/Q148H (pat.) [1] | Fold change in EC50 relative to NL4-3, T97A/N155H (pat.) [1] | other results
1 | CC(C)(C)NC(=O)[C@@H]1CN(Cc2cccnc2)CCN1C[C@@H](O)C[C@@H](Cc1ccccc1)C(=O)N[C@H]1c2ccccc2C[C@H]1O [IDV, indinavir] | 1 | 1 | 1 | 1 | 1 | 1 | 1 | 5 | 8 | 92 | 260 | 36 | 59 | – | – | – | – | – | –
2 | COc1cc2c(cc1Cc1cccc(Cl)c1F)c(=O)c(C(=O)O)cn2[C@H](CO)C(C)C [EVG, elvitegravir] | 24 | 2500 | 12 | 2 | 1 | 1 | 1 | 1 | 1 | 1 | 1 | 2 | 2 | 2 | 3 | 200 | 2000 | 440 | EC50 (NL4-3 HIV-1 strain; Human immunodeficiency virus 1, NL43, MT4, wild type NL4-3, Table 9, read-out: EC50 NL4-3): 2.2 ± 1.2 nM; EC50 fold change compared to wild type NL4-3, A128T ([2]; NL4-3 IN A128T): 1; EC50 fold change compared to wild type NL4-3, H171Q ([2]; NL4-3 IN H171Q): 1; EC50 fold change compared to wild type NL4-3, N222K ([2]; NL4-3 IN N222K): 1; EC50 fold change compared to wild type NL4-3, T174I ([2]; NL4-3 IN T174I): 1; EC50 fold change compared to wild type NL4-3, Y99H ([2]; NL4-3 IN Y99H): 1
3 | Cc1cc(/C=C/C#N)cc(C)c1Nc1ccnc(Nc2ccc(C#N)cc2)n1 [RPV, rilpivirine] | – | 1 | – | – | 1 | 0.4 | 3 | 1 | 1 | 0.4 | 1 | 1 | 1 | 1 | 1 | 1 | 1 | 1 | –
4 | Cc1cn([C@H]2C[C@H](N=[N+]=[N-])[C@@H](CO)O2)c(=O)[nH]c1=O [AZT, azidothymidine] | 1 | 1 | 1 | 1 | 150 | 210 | 0.1 | 2 | 1 | 1 | 2 | 2 | 5 | 1 | 1 | 1 | 1 | 4 | –
5 | O=C1Nc2ccc(Cl)cc2[C@@](C#CC2CC2)(C(F)(F)F)O1 [EFV, efavirenz] | 1 | 1 | 1 | 1 | 2 | 39 | 51 | 1 | 1 | 0.5 | 1 | 2 | 1 | 1 | 1 | 1 | 1 | 2 | –
6 | CC(C)CN(C[C@@H](O)[C@H](Cc1ccccc1)NC(=O)O[C@H]1CO[C@H]2OCC[C@H]21)S(=O)(=O)c1ccc(N)cc1 [DRV, darunavir] | – | 1 | – | – | 1 | 1 | 1 | 1 | 1 | 31 | 24 | 12 | 240 | – | – | – | – | – | –
7 | Cc1nnc(C(=O)NC(C)(C)c2nc(C(=O)NCc3ccc(F)cc3)c(O)c(=O)n2C)o1 [RAL, raltegravir] | – | – | – | – | – | – | – | – | – | – | – | – | – | – | – | – | – | – | EC50 (HXB2 HIV-1 strain): 8.7 ± 6 nM; EC50 ([3]; read-out: EC50 33913N (B)): 2.1 ± 0.1 nM; EC50 ([3]; read-out: EC50 HXB2 (B)): 2.6 ± 1.4 nM; EC50 ([3]; read-out: EC50 KER2008 (A)): 6.7 ± 4 nM; EC50 ([3]; read-out: EC50 NL4-3 (B)): 4.9 ± 2.3 nM; EC50 ([3]; read-out: EC50 NP1525 (CRF01_AE)): 4 ± 1.7 nM; EC50 ([3]; read-out: EC50 NP1538 (B)): 1.7 ± 1.9 nM; EC50 (NL4-3 HIV-1 strain; Human immunodeficiency virus 1, NL43, MT4, read-out: EC50 NL4-3): 14 ± 9 nM; EC90 (NL4-3 HIV-1 strain; Human immunodeficiency virus 1, NL43, MT4, read-out: EC90 NL4-3): 28 ± 14 nM; EC50 [4]: 3.5 ± 1 nM; CC50 [5]: 438000 ± 29000 nM

From article PMC10353390, “Biological and Structural Analyses of New Potent Allosteric Inhibitors of HIV-1 Integrase” (Antimicrobial Agents and Chemotherapy, 2023)
